Assays:
[1] = tested on: human oral keratinocytes (HOK-18A); assay: IL-8 levels in supernatant of keratinocytes exposed to substrate-treated biofilms; type: cell-based; settings: biofilms treated with substrate 1 M; n = 3
Procedure: (§1) Cultures of immortalized human oral keratinocytes (HOK-18A) are grown. […] The IL-8 levels in the cellular supernatant are determined as well. RNA is converted to cDNA and relative expression of inflammatory mediator genes is determined as described above with respect to the cellular housekeeping gene β-actin.

[2] = tested on: human oral keratinocytes (HOK-18A); assay: Inflammatory mediator gene expression in keratinocytes exposed to substrate-treated biofilms (SYBR RT-qPCR); type: cell-based; settings: for fold change in IL-1β gene expression, geometric mean (C.I.) / fold change in IL-6 gene expression, geometric mean (C.I.) / fold change in IL-8 gene expression, geometric mean (C.I.) / fold change in MMP-8 gene expression, geometric mean (C.I.) / fold change in TNF-α gene expression, geometric mean (C.I.): relative to control, n = 3
Procedure: as §1
In HOKs exposed to substrate-treated (substrate concentrations of […]) multi-species biofilms, there are mostly decreases in inflammatory mediator gene expression as measured via SYBR RT-qPCR, the results of which are detailed in Table 7:
Fold changes in inflammatory mediator gene expression from human oral keratinocytes (HOK-18A) exposed to substrate-treated multi-species biofilms are determined relatively to the control through the 2^^-ΔΔCt method and are shown as the geometric mean (C.I.) (n = 3) of the 2^^-ΔΔCt values. All substrates are dissolved in PBS at a concentration of 1 M (upper part) or 1%(w/v) (lower part). Values between 0 and 1 represent relative downregulation, values >1 represent relative upregulation.

[3] = HOK-18A exposed to biofilms treated with substrate 1% (w/v)
[4] = HOK-18A exposed to biofilms treated with substrate 1 M

Row | SMILES | Mean ± SD IL-8 levels in HOK-18A supernatant [1] | fold change in IL-1β gene expression, geometric mean (C.I.) [2, 3] | fold change in IL-6 gene expression, geometric mean (C.I.) [2, 3] | fold change in IL-8 gene expression, geometric mean (C.I.) [2, 3] | fold change in MMP-8 gene expression, geometric mean (C.I.) [2, 3] | fold change in TNF-α gene expression, geometric mean (C.I.) [2, 3] | fold change in IL-1β gene expression, geometric mean (C.I.) [2, 4] | fold change in IL-6 gene expression, geometric mean (C.I.) [2, 4] | fold change in IL-8 gene expression, geometric mean (C.I.) [2, 4] | fold change in MMP-8 gene expression, geometric mean (C.I.) [2, 4] | fold change in TNF-α gene expression, geometric mean (C.I.) [2, 4] | downregulation of IL-1β gene expression ([2]; substrate 1 M) [fold] | downregulation of IL-6 gene expression ([2]; substrate 1 M) [fold] | downregulation of TNF-α gene expression ([2]; substrate 1 M) [fold]
1 | OC[C@H]1O[C@@H](O[C@H]2[C@H](O)[C@@H](O)[C@@H](O)O[C@@H]2CO)[C@H](O)[C@@H](O)[C@H]1O [D-lactose, α-D-lactose] | < LOD^∗ | 0.89 (0.54-1.45) fold | 0.74 (0.56-0.97)^∗ fold | 1.13 (0.71-1.80) fold | 0.70 (0.62-0.79) fold | 0.81 (0.50-1.33) fold | 0.5 (0.38-0.65)^∗ fold | 0.33 (0.12-0.88)^∗ fold | 0.03 (0.02-0.05)^∗ fold | 0.78 (0.38-1.61) fold | 0.39 (0.23-0.66)^∗ fold | 2 | 3 | 2.5
2 | CC(=O)N[C@H]1C(O)O[C@H](CO)[C@@H](O)[C@@H]1O (stereo partly drawn) [NADG, N-acetyl-D-glucosamine] |  | 0.71 (0.38-1.33)^∗ fold | 0.73 (0.58-0.93)^∗ fold | 1.00 (0.78-1.27) fold | 0.52 (0.17-1.6)^∗ fold | 0.71 (0.28-1.35)^∗ fold | 0.75 (0.55-1.02) fold | 0.57 (0.46-0.71) fold | 0.14 (0.06-0.36)^∗ fold | 1.28 (0.79-2.08) fold | 0.89 (0.59-1.34) fold |  |  | 
3 | OC[C@H]1O[C@H](O[C@H]2O[C@H](CO)[C@@H](O)[C@H](O)[C@H]2O)[C@H](O)[C@@H](O)[C@@H]1O [D-trehalose, D-(+)-trehalose] |  | 1.06 (0.55-2.06) fold | 1.00 (0.46-2.17) fold | 1.32 (0.89-1.94)^∗ fold | 0.66 (0.46-0.93) fold | 0.94 (0.54-1.64) fold | 0.79 (0.45-1.38) fold | 1.27 (0.11-14.86) fold | 0.22 (0.15-0.34)^∗ fold | 0.81 (0.68-0.95) fold | 0.66 (0.41-1.06)^∗ fold |  |  | 
4 | OC[C@H]1O[C@H](OC[C@H]2O[C@H](O[C@]3(CO)O[C@H](CO)[C@@H](O)[C@@H]3O)[C@H](O)[C@@H](O)[C@@H]2O)[C@H](O)[C@@H](O)[C@H]1O [D-raffinose, D-(+)-raffinose] |  | 0.93 (0.56-1.55) fold | 0.70 (0.44-1.13)^∗ fold | 1.08 (0.73-1.59) fold | 0.71 (0.38-1.35) fold | 0.77 (0.55-1.08) fold | 0.8 (0.44-1.46) fold | 0.54 (0.17-1.72) fold | 0.10 (0.04-0.29)^∗ fold | 0.85 (0.61-1.19) fold | 0.66 (0.56-0.78)^∗ fold |  |  | 

Source: patent publication US20230346670A1, “Prebiotic Oral Care Compositions and Methods” (Colgate-Palmolive Company, priority 2020, published 2023)
